Measurements published in US20110045101A1, “FUNGICIDAL SUBSTITUTED AZOLES” (E.I. Du Pont De Nemours and Company, priority 2009, published 2011).

Legend:
[1] = tested on: Erysiphe graminis f. sp. tritici; assay: Test J: wheat powdery mildew on wheat seedlings, sprayed the day before inoculation, visual disease rating; assay type: in vivo; conditions: 100 = 100% disease control; for pest or weed control at 200 ppm / Test J disease control rating: 0 = no control relative to controls, 200 ppm
Outline: (§1)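 Compounds were dissolved in acetone (3% of final volume), then suspended in 50/50 acetone/purified water with 250 ppm Trem® 014 surfactant. Suspensions at 200 ppm (some at 40 ppm) were sprayed to run-off, 200 ppm being equivalent to 500 g/ha.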

Alternaria solani = assay: Test D: tomato early blight, sprayed the day before inoculation, visual disease rating; assay type: in vivo; conditions: 100 = 100% disease control; for pest or weed control at 200 ppm / Test D disease control rating: 0 = no control relative to controls, 200 ppm
Outline: as §1

Septoria tritici = assay: Test G: wheat leaf blotch on wheat seedlings, sprayed the day before inoculation, visual disease rating; assay type: in vivo; conditions: 100 = 100% disease control; for pest or weed control at 200 ppm / Test G disease control rating: 0 = no control relative to controls, 200 ppm
Outline: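 Visual disease ratings taken 19 days after transfer to a 20° C growth chamber, following 48 h in saturated atmosphere at 24° C. Seedlings had been sprayed to run-off one day before spore inoculation. Dose 200 ppm, or 40 ppm where starred.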

Botrytis cinerea = assay: Test C: tomato Botrytis on tomato seedlings, sprayed the day before inoculation, visual disease rating; assay type: in vivo; conditions: 100 = 100% disease control; for pest or weed control at 200 ppm / Test C disease control rating: 0 = no control relative to controls, 200 ppm
Outline: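 Compounds were dissolved in acetone (3% of final volume), then suspended in 50/50 acetone/purified water containing 250 ppm polyhydric alcohol ester surfactant. Suspensions were sprayed to run-off on tomato seedlings at 200 ppm, equivalent to 500 g/ha, or at 40 ppm where marked.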

Septoria nodorum = assay: Test F: wheat glume blotch on wheat seedlings, sprayed the day before inoculation, visual disease rating; assay type: in vivo; conditions: 100 = 100% disease control; for pest or weed control at 200 ppm / Test F disease control rating: 0 = no control relative to controls, 200 ppm
Outline: as §1

[2] = tested on: Puccinia recondita f. sp. tritici; assay: Test I: wheat leaf rust on wheat seedlings, sprayed the day before inoculation, visual disease rating; assay type: in vivo; conditions: 100 = 100% disease control; for pest or weed control at 200 ppm / Test I disease control rating: 0 = no control relative to controls, 200 ppm
Outline: as §1

Rhizoctonia solani = assay: Test B: turf brown patch on bentgrass seedlings, sprayed the day before inoculation, visual disease rating; assay type: in vivo; conditions: 200 ppm; 100 = 100% disease control, 0 = no control relative to controls
Description: General protocol for preparing test suspensions for Tests A-J: The test compounds were first dissolved in acetone in an amount equal to 3% of the final volume and then suspended at the desired concentration (in ppm) in acetone and purified water (50/50 mix) containing 250 ppm of the surfactant Trem® 014 (polyhydric alcohol esters). The resulting test suspensions were then used in tests A-J. Spraying a 200 ppm test suspension to the point of run-off on the test plants was the equivalent of a rate of 500 g/ha. […] The test suspension was sprayed to the point of run-off on bentgrass (Agrostis sp.) seedlings. […] A dash (-) indicates no test results. All results are for 200 ppm except where followed by “*”, which indicates 40 ppm.

Plasmopara viticola = assay: Test A: grape downy mildew, test suspension sprayed after inoculation of grape seedlings, visual disease rating; assay type: in vivo; conditions: 200 ppm; 100 = 100% disease control, 0 = no control relative to controls
Description: General protocol for preparing test suspensions for Tests A-J: The test compounds were first dissolved in acetone in an amount equal to 3% of the final volume and then suspended at the desired concentration (in ppm) in acetone and purified water (50/50 mix) containing 250 ppm of the surfactant Trem® 014 (polyhydric alcohol esters). The resulting test suspensions were then used in tests A-J. Spraying a 200 ppm test suspension to the point of run-off on the test plants was the equivalent of a rate of 500 g/ha. […] Grape seedlings were inoculated with a spore suspension of Plasmopara viticola (the causal agent of grape downy mildew) and incubated in a saturated atmosphere at 20° C. for 24 h. After a short drying period, the grape seedlings were sprayed with the test suspension to the point of run-off and then moved to a growth chamber at 20° C. for 5 days, after which time the grape seedlings were placed back into a saturated atmosphere at 20° C. for 24 h. Upon removal, visual disease ratings were made. […] A dash (-) indicates no test results.

Phytophthora infestans = assay type: in vivo; conditions: 200 ppm; 100 = 100% disease control, 0 = no control relative to controls
[3] = Parastagonospora nodorum, 264 h

Structure (SMILES) | melting point [°C] | pest or weed control at 200 ppm ([1]; Blumeria graminis, 168 h) [%] | pest or weed control at 200 ppm (Alternaria solani; Alternaria solani, 168 h) [%] | pest or weed control at 200 ppm (Septoria tritici; Zymoseptoria tritici, 504 h) [%] | pest or weed control at 200 ppm (Botrytis cinerea; Botrytis cinerea, 120 h) [%] | pest or weed control at 200 ppm (Septoria nodorum; [3]) [%] | pest or weed control at 200 ppm ([2]; Puccinia recondita, 168 h) [%] | Test B disease control rating (Rhizoctonia solani) [%] | Test A disease control rating (Plasmopara viticola) [%] | Test E disease control rating (Phytophthora infestans) [%] | Test J disease control rating [1] [%] | Test D disease control rating (Alternaria solani) [%] | Test G disease control rating (Septoria tritici) [%] | Test C disease control rating (Botrytis cinerea) [%] | Test F disease control rating (Septoria nodorum) [%] | Test I disease control rating [2] [%] | other results
Fc1cc(F)c(-c2c(Cl)ncn2-c2ccc(Cl)cc2)c(F)c1 [Compound 1, 4-chloro-1-(4-chlorophenyl)-5-(2,4,6-trifluorophenyl)-1H-imidazole] | 102 to 104 |  |  |  |  |  |  |  |  |  |  |  |  |  |  |  | pest or weed control at 40 ppm ([1]; Blumeria graminis, 168 h, 40 ppm (marked *)): 99%; pest or weed control at 40 ppm (Alternaria solani; Alternaria solani, 168 h, 40 ppm (marked *)): 94%; pest or weed control at 40 ppm (Septoria tritici; Zymoseptoria tritici, 504 h, 40 ppm (marked *)): 93%; pest or weed control at 40 ppm (Botrytis cinerea; Botrytis cinerea, 120 h, 40 ppm (marked *)): 99%; pest or weed control at 40 ppm (Septoria nodorum; Parastagonospora nodorum, 264 h, 40 ppm (marked *)): 0%; pest or weed control at 40 ppm ([2]; Puccinia recondita, 168 h, 40 ppm (marked *)): 16%
Cc1nc(Cl)c(-c2c(F)cccc2F)n1-c1ccc(Cl)cc1 [Compound 2, 4-chloro-1-(4-chlorophenyl)-5-(2,6-difluorophenyl)-2-methyl-1H-imidazole] | 143 to 145 | 100 | 100 | 100 | 99 | 100 | 100 | 65 |  |  |  |  |  |  |  |  | 
Fc1cccc(F)c1-c1c(Cl)nc(Cl)n1-c1ccc(Cl)cc1 [Compound 3, 2,4-dichloro-1-(4-chlorophenyl)-5-(2,6-difluorophenyl)-1H-imidazole] | 123 to 125 | 100 | 100 | 100 | 99 | 99 | 99 | 99 |  |  |  |  |  |  |  |  | 
Fc1cc(F)c(-c2c(Cl)nc(Cl)n2-c2ccc(Cl)cc2)c(F)c1 [Compound 6, 2,4-dichloro-1-(4-chlorophenyl)-5-(2,4,6-trifluorophenyl)-1H-imidazole] | 112 to 119 | 100 | 100 | 100 | 99 | 95 | 100 | 99 | 0 | 0 |  |  |  |  |  |  | 
COc1cc(F)c(-c2c(-c3ccc(F)cc3)c(OC)nn2C)c(F)c1 [compound 579] |  |  |  |  |  |  |  | 92 | 0 | 0 | 100 | 97 | 100 | 99 | 0 | 93 | 
COc1ccc(-c2c(OC)nn(C)c2-c2c(F)cc(OC)cc2F)cc1 [compound 580] |  |  |  |  |  |  |  | 88 | 0 | 0 | 90 | 0 | 100 | 98 | 0 | 84 | 
